Measurements: patent publication US8877944B2, “3-oxo-2,3-dihydro-1H-isoindole-4-carboxamides as PARP inhibitors” (Nerviano Medical Sciences S.R.L., priority 2009, dated 2014)

Key:
[1] = target: PARP-1 FL (Homo sapiens (Human), UniProt P09874); assay: Fluorescence polarization probe displacement assay, PARP-1; format: binding; settings: for DC50: half maximal displacement concentration
Experimental: (§1) Affinity evaluation of the tested compounds and their selectivity with respect to the different PARP isoforms of interest was assessed in a displacement assay.
(§2) The polarization signal can be measured, e.g., by a plate reader such as the Saphire2 (Tecan). The displacement ability of the test compound is in correlation with the compound affinity for the NAD pocket of the enzyme.
(§3) The assay performances were then evaluated (Z′ factor) as well as the displacement of the probe by its scaffold and known commercially available PARP inhibitors. In all of the experiments, the polarization signal was measured using a Saphire2 plate reader (Tecan). Data analysis was performed using Dynafit software. In particular, titration data were fitted to the following equilibria: Enzyme+probe <==> Complex Enzyme-probe, while displacement data were fitted to the following equilibria: Enzyme+probe <==> Complex Enzyme-probe, Enzyme+Compound <==> Complex Enzyme-Compound, whereby binding of probe and compound on the enzyme are mutually exclusive (pure competitive mechanism). Displacement data were also fitted using Excell spreadsheet (Microsoft Inc. Seattle, USA) to a four parameter logistic model (4PL), or Hill-Slope model to calculate DC50s where the DC50 value represents the compound concentration at which the polarization signal is diminished by 50% compared to untreated controls.
(§4) KD values, are the average of three independent experiments.

[2] = target: PARP-2 FL (Homo sapiens (Human), UniProt Q9UGN5); assay: Fluorescence polarization probe displacement assay, PARP-2; format: binding; settings: read-out: PARP-2 DC50; half maximal displacement concentration
Experimental: as §1, §2, §3, §4

[3] = target: PARP-3 FL (Homo sapiens (Human), UniProt Q9Y6F1); assay: Fluorescence polarization probe displacement assay, PARP-3; format: binding; settings: half maximal displacement concentration
Experimental: as §1, §2, §3, §4

[4] = tested on: PAR formation in HeLa cells; assay: Cellular PAR assay: inhibition of hydrogen peroxide induced PAR formation; settings: Homo sapiens, read-out: PAR assay IC50
Experimental: Compounds potencies were evaluated by measuring the inhibition of poly (ADP-ribose) (PAR) chains formation as a marker for PARP-1 inhibition.
Cellular activity of PARP-1 inhibitors was assessed by measuring the inhibition of the hydrogen peroxide induced PAR formation in HeLa cells (ECACC). Cellular PAR levels were measured by immunocytochemistry, and quantified using an ArrayScan vTi instrument (Cellomics Thermo Scientific).
Test compounds were then added at the required concentration for 30′. […] Concentration curves were prepared in MEM/10% FCS from compound stocks in DMSO, and final DMSO concentration was 0.002% (v/v). Duplicate wells for each concentration point were prepared with a typical highest compound concentration of 20 μM and serial dilution 1:3. […] Non-specific binding sites were blocked by incubating wells for 30 min in PBS containing 5% (w/v) FBS 0.05% tween20. […] After washing further 3 times in PBS, cellular PAR immunoreactivity was assessed using the ArrayScan vTi instrument, with a Zeiss 10×0.5 N.A. objective, and applying the Cytotoxicity.V3 algorithm (Cellomics/Thermo Fisher) with a XF100 filter. At least 10 fields, corresponding to at least 900 cells, were read for each well.
The following formula is used: IC50=Bottom+(Top-Bottom)/(1+10^((LogEC50−X))); X is the logarithm of concentration. IC50 is the response; IC50 starts at Bottom and goes to Top with a sigmoid shape.

[5] = compound P1 as the probe, 250 nM PARP-1

Chain of PARP-1 FL (P09874 whole entry): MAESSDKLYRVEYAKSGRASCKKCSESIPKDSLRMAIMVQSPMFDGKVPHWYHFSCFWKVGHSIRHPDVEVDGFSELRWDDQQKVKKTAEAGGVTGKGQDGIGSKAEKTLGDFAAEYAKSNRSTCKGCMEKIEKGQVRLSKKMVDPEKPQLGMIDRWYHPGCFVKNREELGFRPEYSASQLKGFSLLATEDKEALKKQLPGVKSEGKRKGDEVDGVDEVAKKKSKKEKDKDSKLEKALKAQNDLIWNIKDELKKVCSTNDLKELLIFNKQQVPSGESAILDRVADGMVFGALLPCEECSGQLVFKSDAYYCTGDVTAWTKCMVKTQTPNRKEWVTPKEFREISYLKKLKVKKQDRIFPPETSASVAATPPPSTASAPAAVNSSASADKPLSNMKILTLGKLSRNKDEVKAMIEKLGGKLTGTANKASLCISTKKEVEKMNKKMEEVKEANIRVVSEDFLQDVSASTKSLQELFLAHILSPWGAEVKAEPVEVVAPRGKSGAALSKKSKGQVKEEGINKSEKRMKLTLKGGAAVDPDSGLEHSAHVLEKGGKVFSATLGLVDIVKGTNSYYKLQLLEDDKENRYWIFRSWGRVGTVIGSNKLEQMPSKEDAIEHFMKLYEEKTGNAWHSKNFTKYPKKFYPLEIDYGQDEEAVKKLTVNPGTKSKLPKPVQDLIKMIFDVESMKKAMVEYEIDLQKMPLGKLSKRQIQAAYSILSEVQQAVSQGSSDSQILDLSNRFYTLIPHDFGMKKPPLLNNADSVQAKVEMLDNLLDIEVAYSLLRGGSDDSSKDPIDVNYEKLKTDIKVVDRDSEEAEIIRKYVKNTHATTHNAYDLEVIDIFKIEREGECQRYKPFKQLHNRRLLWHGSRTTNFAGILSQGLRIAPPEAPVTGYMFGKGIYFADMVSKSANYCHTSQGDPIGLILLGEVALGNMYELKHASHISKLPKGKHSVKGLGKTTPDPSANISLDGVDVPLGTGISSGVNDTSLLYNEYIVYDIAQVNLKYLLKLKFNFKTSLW
Chain of PARP-3 FL (Q9Y6F1 whole entry): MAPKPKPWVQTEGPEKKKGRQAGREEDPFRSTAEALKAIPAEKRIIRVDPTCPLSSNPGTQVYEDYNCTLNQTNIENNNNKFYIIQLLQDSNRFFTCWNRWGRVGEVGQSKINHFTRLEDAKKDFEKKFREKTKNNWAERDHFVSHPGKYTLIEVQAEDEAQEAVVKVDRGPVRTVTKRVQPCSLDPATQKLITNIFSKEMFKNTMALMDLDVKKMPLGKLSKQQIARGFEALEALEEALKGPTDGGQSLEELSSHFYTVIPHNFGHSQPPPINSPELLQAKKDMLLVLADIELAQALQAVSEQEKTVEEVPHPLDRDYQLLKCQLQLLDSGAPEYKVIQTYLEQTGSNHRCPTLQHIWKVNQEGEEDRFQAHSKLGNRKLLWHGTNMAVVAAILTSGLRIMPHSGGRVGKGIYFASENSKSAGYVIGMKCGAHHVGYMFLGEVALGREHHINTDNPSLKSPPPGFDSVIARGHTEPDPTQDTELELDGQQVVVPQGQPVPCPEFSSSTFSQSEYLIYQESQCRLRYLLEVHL
Chain of PARP-2 FL (Q9UGN5 whole entry): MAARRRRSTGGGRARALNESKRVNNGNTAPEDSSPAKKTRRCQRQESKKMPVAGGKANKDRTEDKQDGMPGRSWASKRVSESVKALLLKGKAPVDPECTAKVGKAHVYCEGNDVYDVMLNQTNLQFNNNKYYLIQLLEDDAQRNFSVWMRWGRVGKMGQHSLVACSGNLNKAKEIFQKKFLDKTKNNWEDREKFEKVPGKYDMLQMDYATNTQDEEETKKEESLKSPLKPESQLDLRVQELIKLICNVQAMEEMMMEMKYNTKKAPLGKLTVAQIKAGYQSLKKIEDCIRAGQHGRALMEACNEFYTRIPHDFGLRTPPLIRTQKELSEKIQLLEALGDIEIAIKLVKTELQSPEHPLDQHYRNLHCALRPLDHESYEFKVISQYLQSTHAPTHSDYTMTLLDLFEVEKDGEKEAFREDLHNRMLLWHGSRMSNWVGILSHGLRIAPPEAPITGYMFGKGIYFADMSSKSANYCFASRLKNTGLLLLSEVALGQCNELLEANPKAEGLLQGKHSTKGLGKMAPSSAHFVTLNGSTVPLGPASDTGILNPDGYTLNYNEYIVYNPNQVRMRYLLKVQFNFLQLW

| SMILES | Kd ([1]; compound P3 as the probe, 100 nM PARP-1) [nM] | DC50 [1] [nM] | DC50 [2] [nM] | DC50 [3] [nM] | IC50 [4] [nM] | Kd [1, 5] [nM] |
| --- | --- | --- | --- | --- | --- | --- |
| CO[C@H]1CC[C@@H](N2CCC(N3Cc4cccc(C(N)=O)c4C3=O)CC2)CC1 [Compound 1, 2-[1-(Cis-4-methoxycyclohexyl)piperidin-4-yl]-3-oxo-2,3-dihydro-1H-isoindole-4-carboxamide] | 60 | < 250 | > 10000 | 3700 | 390 |  |
| COC[C@H]1CC[C@@H](N2CCC(N3Cc4cccc(C(N)=O)c4C3=O)CC2)CC1 [Compound 5, 2-{1-[Cis-4-(methoxymethyl)cyclohexyl]piperidin-4-yl}-3-oxo-2,3-dihydro-1H-isoindole-4-carboxamide] |  | < 250 | > 10000 |  | 4600 | 40 |
| COC[C@H]1CC[C@H](N2CCC(N3Cc4cccc(C(N)=O)c4C3=O)CC2)CC1 [Compound 6, 2-{1-[Trans-4-(methoxymethyl)cyclohexyl]piperidin-4-yl}-3-oxo-2,3-dihydro-1H-isoindole-4-carboxamide] |  | < 250 | > 10000 |  | 2300 | < 30 |
| NC(=O)c1cccc2c1C(=O)N(C1CCN(Cc3ccc(F)cc3)CC1)C2 [Compound 11, 2-[1-(4-Fluorobenzyl)piperidin-4-yl]-3-oxo-2,3-dihydro-1H-isoindole-4-carboxamide] |  |  | > 10000 |  |  |  |
| NC(=O)c1cccc2c1C(=O)N(C1CCN(Cc3ccccc3F)CC1)C2 [Compound 12, 2-[1-(2-Fluorobenzyl)piperidin-4-yl]-3-oxo-2,3-dihydro-1H-isoindole-4-carboxamide] |  | < 250 | > 10000 |  |  | < 30 |
| NC(=O)c1cccc2c1C(=O)N(C1CCN(Cc3cccc(F)c3)CC1)C2 [Compound 13, 2-[1-(3-Fluorobenzyl)piperidin-4-yl]-3-oxo-2,3-dihydro-1H-isoindole-4-carboxamide] |  | < 250 | > 10000 |  |  | < 30 |
| NC(=O)c1cccc2c1C(=O)N(C1CCN(Cc3ccc4ccccc4n3)CC1)C2 [Compound 16, 3-oxo-2-[1-(quinolin-2-ylmethyl)piperidin-4-yl]-2,3-dihydro-1H-isoindole-4-carboxamide] |  | < 250 | 3200 |  |  | < 30 |
| NC(=O)c1cccc2c1C(=O)N(C1CCN(Cc3ccc(F)cc3F)CC1)C2 [Compound 17, 2-[1-(2,4-Difluorobenzyl)piperidin-4-yl]-3-oxo-2,3-dihydro-1H-isoindole-4-carboxamide] |  | < 250 | > 10000 |  | 5770 | < 30 |
| Cc1ccc(CN2CCC(N3Cc4cccc(C(N)=O)c4C3=O)CC2)cc1C [Compound 18, 2-[1-(3,4-Dimethylbenzyl)piperidin-4-yl]-3-oxo-2,3-dihydro-1H-isoindole-4-carboxamide] |  | < 250 | > 10000 |  | 7100 | < 30 |
| Cc1ncsc1CN1CCC(N2Cc3cccc(C(N)=O)c3C2=O)CC1 [Compound 26, 2-{1-[(4-Methyl-1,3-thiazol-5-yl)methyl]piperidin-4-yl}-3-oxo-2,3-dihydro-1H-isoindole-4-carboxamide] |  | < 250 | 6500 |  | 200 | < 30 |
| NC(=O)c1cccc2c1C(=O)N(C1CCN(CC3CCN(Cc4ccccc4)CC3)CC1)C2 [Compound 27, 2-{1-[(1-Benzylpiperidin-4-yl)methyl]piperidin-4-yl}-3-oxo-2,3-dihydro-1H-isoindole-4-carboxamide] |  | 260 | > 10000 |  | 320 | < 30 |
| NC(=O)c1cccc2c1C(=O)N(C1CCN(Cc3cccc4[nH]ccc34)CC1)C2 [Compound 28, 2-[1-(1H-indol-4-ylmethyl)piperidin-4-yl]-3-oxo-2,3-dihydro-1H-isoindole-4-carboxamide] |  | < 250 |  |  | 190 | 34 |
| NC(=O)c1cccc2c1C(=O)N(C1CCN(Cc3ccc4cc[nH]c4c3)CC1)C2 [Compound 30, 2-[1-(1H-indol-6-ylmethyl)piperidin-4-yl]-3-oxo-2,3-dihydro-1H-isoindole-4-carboxamide] |  | < 250 | 5970 |  | 300 |  |
| Cn1cc(CN2CCC(N3Cc4cccc(C(N)=O)c4C3=O)CC2)cn1 [Compound 33, 2-{1-[(1-Methyl-1H-pyrazol-4-yl)methyl]piperidin-4-yl}-3-oxo-2,3-dihydro-1H-isoindole-4-carboxamide] |  | < 250 | > 10000 |  | 1100 |  |
| Cc1c(CN2CCC(N3Cc4cccc(C(N)=O)c4C3=O)CC2)cnn1C [Compound 34, 2-{1-[(1,5-Dimethyl-1H-pyrazol-4-yl)methyl]piperidin-4-yl}-3-oxo-2,3-dihydro-1H-isoindole-4-carboxamide] |  | 340 | > 10000 |  | 900 | 130 |
| COc1cccc(CN2CCC(N3Cc4cccc(C(N)=O)c4C3=O)CC2)c1 [Compound 35, 2-[1-(3-Methoxybenzyl)piperidin-4-yl]-3-oxo-2,3-dihydro-1H-isoindole-4-carboxamide] |  | < 250 | > 10000 |  | 300 | < 30 |

| SMILES | Kd ([1]; compound P3 as the probe, 100 nM PARP-1) [nM] | DC50 [1] [nM] | DC50 [2] [nM] | DC50 [3] [nM] | IC50 [4] [nM] | Kd [1, 5] [nM] |
| --- | --- | --- | --- | --- | --- | --- |
| Cc1ccsc1CN1CCC(N2Cc3cccc(C(N)=O)c3C2=O)CC1 [Compound 36, 2-{1-[(3-Methylthiophen-2-yl)methyl]piperidin-4-yl}-3-oxo-2,3-dihydro-1H-isoindole-4-carboxamide] |  | < 250 | 9400 |  | 230 | < 30 |
| CCCOc1ccc(CN2CCC(N3Cc4cccc(C(N)=O)c4C3=O)CC2)cc1 [Compound 37, 3-oxo-2-[1-(4-propoxybenzyl)piperidin-4-yl]-2,3-dihydro-1H-isoindole-4-carboxamide] |  | < 250 | > 10000 |  | 260 | < 30 |
| CC(C)c1ccc(CN2CCC(N3Cc4cccc(C(N)=O)c4C3=O)CC2)cc1 [Compound 38, 3-oxo-2-{1-[4-(propan-2-yl)benzyl]piperidin-4-yl}-2,3-dihydro-1H-isoindole-4-carboxamide] |  | < 250 | > 10000 |  | 260 | < 30 |
| COc1ccc(CN2CCC(N3Cc4cccc(C(N)=O)c4C3=O)CC2)cc1 [Compound 39, 2-[1-(4-Methoxybenzyl)piperidin-4-yl]-3-oxo-2,3-dihydro-1H-isoindole-4-carboxamide] |  | < 250 | > 10000 |  | 330 | < 30 |
| CCOc1cccc(CN2CCC(N3Cc4cccc(C(N)=O)c4C3=O)CC2)c1 [Compound 40, 2-[1-(3-Ethoxybenzyl)piperidin-4-yl]-3-oxo-2,3-dihydro-1H-isoindole-4-carboxamide] |  | < 250 | > 10000 |  | 620 | 110 |
| CC(C)Oc1ccccc1CN1CCC(N2Cc3cccc(C(N)=O)c3C2=O)CC1 [Compound 41, 3-oxo-2-{1-[2-(propan-2-yloxy)benzyl]piperidin-4-yl}-2,3-dihydro-1H-isoindole-4-carboxamide] |  | 470 | > 10000 |  |  |  |
| NC(=O)c1cccc2c1C(=O)N(C1CCN(Cc3cccc(Cl)c3)CC1)C2 [Compound 42, 2-[1-(3-Chlorobenzyl)piperidin-4-yl]-3-oxo-2,3-dihydro-1H-isoindole-4-carboxamide] |  | < 250 | 4150 |  | 5310 | 33 |
| CCc1ccc(CN2CCC(N3Cc4cccc(C(N)=O)c4C3=O)CC2)cc1 [Compound 43, 2-[1-(4-Ethylbenzyl)piperidin-4-yl]-3-oxo-2,3-dihydro-1H-isoindole-4-carboxamide] |  | < 250 | > 10000 |  | 2660 | < 30 |
| CC(C)Oc1ccc(CN2CCC(N3Cc4cccc(C(N)=O)c4C3=O)CC2)cc1 [Compound 44, 3-oxo-2-{1-[4-(propan-2-yloxy)benzyl]piperidin-4-yl}-2,3-dihydro-1H-isoindole-4-carboxamide] |  | < 250 | > 10000 |  | 500 |  |
| Cc1ccc(CN2CCC(N3Cc4cccc(C(N)=O)c4C3=O)CC2)s1 [Compound 45, 2-{1-[(5-Methylthiophen-2-yl)methyl]piperidin-4-yl}-3-oxo-2,3-dihydro-1H-isoindole-4-carboxamide] |  | < 250 | > 10000 |  | 360 | < 30 |
| NC(=O)c1cccc2c1C(=O)N(CCCN1CCN(c3cccc(Cl)c3)CC1)C2 [Compound 46, 2-{3-[4-(3-Chloro-phenyl)-piperazin-1-yl]-propyl}-3-oxo-2,3-dihydro-1H-isoindole-4-carboxylic acid amide] |  | < 250 | 1460 |  | 400 |  |
| NC(=O)c1cccc2c1C(=O)N(CC1CCN(Cc3ccc(F)cc3)CC1)C2 [Compound 51, 2-{[1-(4-Fluorobenzyl)piperidin-4-yl]methyl}-3-oxo-2,3-dihydro-1H-isoindole-4-carboxamide] |  | < 250 | 5680 |  | 160 | < 30 |
| NC(=O)c1cc(Cl)cc2c1C(=O)N(C1CCN(C3CCC(F)(F)CC3)CC1)C2 [Compound 100, 2-[1-(4,4-Difluorocyclohexyl)-piperidin-4-yl]-6-chloro-3-oxo-2,3-dihydro-1H-isoindole-4-carboxamide] |  |  | > 10000 | 790 |  |  |
| NC(=O)c1ccc(F)c2c1C(=O)N(C1CCN(C3CCC(F)(F)CC3)CC1)C2 [Compound 101, 2-[1-(4,4-Difluorocyclohexyl)-piperidin-4-yl]-7-fluoro-3-oxo-2,3-dihydro-1H-isoindole-4-carboxamide] |  |  | > 10000 | > 10000 |  |  |
| NC(=O)c1cc(F)cc2c1C(=O)N(C1CCN(C3CCC(Cl)(Cl)CC3)CC1)C2 [Compound 105, 2-[1-(4,4-Dichlorocyclohexyl)piperidin-4-yl]-6-fluoro-3-oxo-2,3-dihydro-1H-isoindole-4-carboxamide] |  |  | > 10000 | 1080 |  |  |
